Legend:
[1] = Liquid; for speed of sound: Frequency=1.5 MHz, Single path-length method; for mass density: 298.15 K, 101.33 kPa, Vibrating tube method
[2] = refractive index (Na D-line) (dimensionless); conditions: 298.15 K; 101.33 kPa; Liquid; Standard Abbe refractometry

CO [methanol]
speed of sound [m/s], [1]
Conditions | 283.15 K | 293.15 K | 303.15 K | 313.15 K | 323.15 K | 333.15 K | 343.15 K
100 kPa | 1154.3 | 1120.6 | 1087.4 | 1054.5 | 1022 | 989.77 | –
120 kPa | – | – | – | – | – | – | 957.61
5100 kPa | 1182 | 1149.2 | 1118 | 1087 | 1055.8 | 1025.2 | 994.42
10100 kPa | 1209.3 | 1176.2 | 1146.4 | 1116.8 | 1087.2 | 1058 | 1028.6
20100 kPa | 1258.7 | 1227.4 | 1199.4 | 1171.1 | 1143.8 | 1117.2 | 1090.6
30100 kPa | 1303.6 | 1274.2 | 1248.1 | 1221.5 | 1195.3 | 1169.8 | 1144.9
40100 kPa | 1345.2 | 1316.8 | 1292.5 | 1267.3 | 1242.7 | 1218.6 | 1194.9
50100 kPa | 1384.4 | 1357 | 1333.7 | 1309.7 | 1286.3 | 1263.6 | 1241
60100 kPa | 1421 | 1394.9 | 1372.8 | 1349.4 | 1326.6 | 1304.8 | 1283.5
70100 kPa | 1456.2 | 1430.8 | 1409.7 | 1387.1 | 1365 | 1343.6 | 1323.1
80100 kPa | 1489.1 | 1464.7 | 1444.6 | 1422.7 | 1401.3 | 1380.8 | 1361.1
90100 kPa | 1520.7 | 1496.7 | 1477.7 | 1456.3 | 1435.9 | 1415.9 | 1396.8
95100 kPa | 1536 | 1512.3 | 1493.8 | 1472.6 | 1452.3 | 1432.7 | 1414

Conditions | mass density [kg/m3] | refractive index
[1] | 786.5 | –
[2] | – | 1.3263

O [water]
speed of sound [m/s], [1]
Conditions | 283.15 K | 293.15 K | 303.15 K | 313.15 K | 323.15 K | 333.15 K | 343.15 K
100 kPa | 1447.3 | – | – | 1528.9 | – | 1551 | 1554.8
5100 kPa | 1455.9 | 1490.5 | 1517.5 | 1537.6 | 1551.5 | 1560.1 | 1565
10100 kPa | 1463.8 | 1498.9 | 1525.9 | 1546.1 | 1560.2 | 1569.2 | 1574.4
20100 kPa | 1479.9 | 1515.3 | – | 1563.2 | 1577.7 | 1587.1 | 1592.8
30100 kPa | 1496.2 | 1531.9 | 1559.5 | 1580.3 | 1595 | 1604.8 | 1610.8
40100 kPa | 1513.4 | 1548.6 | 1576.3 | 1597.1 | 1612.2 | 1622.2 | 1628.6
50100 kPa | – | 1565.3 | 1593.1 | 1613.8 | 1629 | 1639.3 | 1646.1
60100 kPa | 1548 | 1582.2 | 1609.8 | 1630.4 | 1645.7 | 1656.3 | 1663.9
70100 kPa | 1565.4 | 1599.1 | 1626.3 | 1646.9 | 1662.3 | 1673.1 | 1681
80100 kPa | 1582.7 | 1615.8 | 1642.6 | 1663.3 | 1678.3 | 1689.6 | 1697.4
90100 kPa | 1600.1 | 1632.4 | 1659 | 1679.4 | 1694.9 | 1705.9 | 1714.2
95100 kPa | 1608.7 | 1640.7 | 1667.3 | 1687.5 | 1702.9 | 1714 | 1723

Conditions | refractive index
[2] | 1.3326

CCCCCCC [heptane]
speed of sound [m/s], [1]
Conditions | 283.15 K | 293.15 K | 303.15 K | 313.15 K | 323.15 K | 333.15 K | 343.15 K
100 kPa | 1197.2 | 1153.9 | 1111.4 | 1068.8 | 1025.9 | 983.91 | 942.89
5100 kPa | 1231.5 | 1189.6 | 1148.8 | 1108.9 | 1068.6 | 1028.8 | 989.64
10100 kPa | 1263.8 | 1223.4 | 1184.1 | 1145.2 | 1107.3 | 1069.8 | 1032.5
20100 kPa | 1323.2 | 1284.8 | 1248.7 | 1212.3 | 1176.7 | 1141.9 | 1108.4
30100 kPa | 1376.7 | 1340.1 | 1306.4 | 1272.1 | 1239 | 1206.4 | 1174.6
40100 kPa | 1426.3 | 1391.5 | 1359.2 | 1326.3 | 1295.3 | 1264.6 | 1234.9
50100 kPa | 1472.5 | 1439 | 1408.5 | 1377.4 | 1346.7 | 1317.4 | 1289.3
60100 kPa | 1515.6 | 1483.3 | 1454.5 | 1424.7 | 1395.2 | 1366.6 | 1339.5
70100 kPa | 1556.1 | 1525.3 | 1497.4 | 1468.7 | 1440.1 | 1412.9 | 1387
80100 kPa | 1593.8 | 1564.9 | 1538.3 | 1510.3 | 1482.6 | 1456 | 1431.2
90100 kPa | 1629.7 | 1602.3 | 1577 | 1549.8 | 1522.8 | 1496.7 | 1472.7
95100 kPa | 1646.4 | 1620.6 | 1595 | 1568.8 | 1542.2 | 1516.4 | 1492.7

Conditions | mass density [kg/m3] | refractive index
[1] | 679.5 | –
[2] | – | 1.3852

Cc1ccccc1 [toluene]
speed of sound [m/s], [1]
Conditions | 283.15 K | 293.15 K | 303.15 K | 313.15 K | 323.15 K | 333.15 K | 343.15 K
100 kPa | 1369.5 | 1327.9 | 1284.1 | 1241.9 | 1200.2 | 1156.6 | 1118
5100 kPa | 1395.4 | 1352.2 | 1309.8 | 1269 | 1229.2 | 1187.4 | 1149.1
10100 kPa | 1418.1 | 1376 | 1334.3 | 1294.5 | 1256.4 | 1215.9 | 1178.9
20100 kPa | 1460.8 | 1420.5 | 1380.9 | 1341 | 1306.4 | 1268.1 | 1234.3
30100 kPa | 1500.8 | 1462 | 1424 | 1387 | 1352.7 | 1315.7 | 1283.9
40100 kPa | 1538.7 | 1500.9 | 1464.7 | 1429.5 | 1396.3 | 1360.3 | 1329.5
50100 kPa | 1574.4 | 1537.9 | 1503.3 | 1468.9 | 1436.9 | 1402.7 | 1371.4
60100 kPa | 1608.1 | 1572.4 | 1539.6 | 1506.4 | 1474.9 | 1441.4 | 1413.5
70100 kPa | 1640.3 | 1605.2 | 1572.1 | 1542.7 | 1511 | 1478.2 | 1451.5
80100 kPa | 1670.9 | 1637 | 1605.2 | 1576.1 | 1545.3 | 1513.1 | 1487.6
90100 kPa | 1700.3 | 1667.1 | 1638.2 | 1607.4 | 1576.7 | 1546.5 | 1522.1
95100 kPa | 1714.5 | 1682 | 1653.5 | 1621.2 | 1591.2 | 1563 | 1538.7

Conditions | mass density [kg/m3] | refractive index
[1] | 862.2 | –
[2] | – | 1.494

CCO [ethanol]
speed of sound [m/s], [1]
Conditions | 283.15 K | 293.15 K | 303.15 K | 313.15 K | 323.15 K | 333.15 K | 343.15 K
100 kPa | 1198.8 | 1163.8 | 1129.3 | 1094.7 | 1060.4 | 1027 | 992.92
5100 kPa | 1227.7 | 1193.5 | 1159.8 | 1127.7 | 1094.5 | 1062.7 | 1030.2
10100 kPa | 1255.7 | 1222.5 | 1189.8 | 1157.4 | 1126.5 | 1096.3 | 1065.8
20100 kPa | 1306.5 | 1275.6 | 1245 | 1214.7 | 1185.2 | 1156.9 | 1129
30100 kPa | 1353.1 | 1323.7 | 1295 | 1266.5 | 1238.8 | 1212.1 | 1185.8
40100 kPa | 1397 | 1368.7 | 1340.6 | 1313.5 | 1287.5 | 1262.3 | 1237.5
50100 kPa | 1437.9 | 1410.7 | 1384.2 | 1358.2 | 1332.4 | 1310.5 | 1284.9
60100 kPa | 1476.1 | 1449.9 | 1424.6 | 1399.1 | 1374.8 | 1351.2 | 1328.8
70100 kPa | 1512.5 | 1486.8 | 1462.7 | 1438.4 | 1414.7 | 1391.9 | 1370.2
80100 kPa | 1547.2 | 1522.1 | 1498.1 | 1475.7 | 1452 | 1429.6 | 1409.5
90100 kPa | 1580.2 | 1555.7 | 1532.5 | 1510.1 | 1487.5 | 1466.1 | 1446.3
95100 kPa | 1596.1 | 1571.8 | 1549.3 | 1526.4 | 1504.5 | 1483.5 | 1464.1

Conditions | mass density [kg/m3] | refractive index
[1] | 785.1 | –
[2] | – | 1.3593

— the NIST ThermoML archive (doi:10.1016/j.jct.2016.09.022)
